PMC10794144, “A novel antibiotic class targeting the lipopolysaccharide transporter” (Nature, 2024)
Values after ≈ are worked out from the molar mass of the structure shown. Read-outs that look alike come from different tables or passages of the source.

System: A. baumannii
Experiment: MIC, broth microdilution in CAMHB supplemented with human serum, read at 100% growth inhibition
Assay type: cell-based, Acinetobacter baumannii
Conditions: Acinetobacter baumannii, 20% HS, read-out: MIC
Method: MIC determinations were performed using the broth microdilution method and in line with CLSI guidelines M07 and M100 (refs. [37],[38]). Bacterial inocula were prepared by diluting a 0.5 McFarland suspension in CAMHB or lysogeny broth (LB) specifically for A. baylyi isolates. […] MIC values of all of the tested antibiotics were read as the lowest compound concentration inhibiting bacterial growth by naked eye or beyond which the OD600 ceased to decrease.

CN1C(=O)[C@H](CCCCN)NC(=O)[C@H](CCCN)NCc2cccnc2Sc2cccc(-c3ccc(C(=O)O)cc3)c2CNC(=O)[C@@H]1Cc1c[nH]c2ccccc12 [zosurabalpin]
MIC (isolate 1093170): 0.25 µg/mL (≈ 0.316 µM)
MIC (isolate 1098735): 1 µg/mL (≈ 1.26 µM)
MIC (isolate 1104059): 1 µg/mL (≈ 1.26 µM)
MIC (isolate 1104061): 0.25 µg/mL (≈ 0.316 µM)
MIC (isolate 1104062): 0.25 µg/mL (≈ 0.316 µM)
MIC (isolate 1115481): 0.06 µg/mL (≈ 0.0759 µM)
MIC (isolate 1115495): 0.5 µg/mL (≈ 0.632 µM)
MIC (isolate 1115510): 0.5 µg/mL (≈ 0.632 µM)
MIC (isolate 1115514): 0.25 µg/mL (≈ 0.316 µM)
MIC (isolate 1126813): 0.25 µg/mL (≈ 0.316 µM)
MIC (isolate 1140100): 0.06 µg/mL (≈ 0.0759 µM)
MIC (isolate 1154091): 1 µg/mL (≈ 1.26 µM)
MIC (isolate 1161864): 0.016 µg/mL (≈ 0.0202 µM)
MIC (isolate 1171976): 0.06 µg/mL (≈ 0.0759 µM)
MIC (isolate 1172109): 0.016 µg/mL (≈ 0.0202 µM)
MIC (isolate 1172126): 0.06 µg/mL (≈ 0.0759 µM)
MIC (isolate 1630178): 0.25 µg/mL (≈ 0.316 µM)
MIC (isolate 1630190): 1 µg/mL (≈ 1.26 µM)
MIC (isolate 1630410): 0.25 µg/mL (≈ 0.316 µM)
MIC (isolate 1631625): 0.06 µg/mL (≈ 0.0759 µM)
MIC (isolate 1631735): 0.5 µg/mL (≈ 0.632 µM)
MIC (isolate 1631846): 0.125 µg/mL (≈ 0.158 µM)
MIC (isolate 1631847): 2 µg/mL (≈ 2.53 µM)
MIC (isolate 1631848): 4 µg/mL (≈ 5.06 µM)
MIC (isolate 1631849): 0.06 µg/mL (≈ 0.0759 µM)
MIC (isolate 1631949): 0.5 µg/mL (≈ 0.632 µM)
MIC (isolate 1631953): 0.5 µg/mL (≈ 0.632 µM)
MIC (isolate 1631954): 0.25 µg/mL (≈ 0.316 µM)
MIC (isolate 1631955): 0.06 µg/mL (≈ 0.0759 µM)
MIC (isolate 1632073): 0.06 µg/mL (≈ 0.0759 µM)
MIC (isolate 1632166): 0.25 µg/mL (≈ 0.316 µM)
MIC (isolate 1632273): 0.25 µg/mL (≈ 0.316 µM)
MIC (isolate 1633081): 0.25 µg/mL (≈ 0.316 µM)
MIC (isolate 1633082): 0.5 µg/mL (≈ 0.632 µM)
MIC (isolate 1633098): 0.25 µg/mL (≈ 0.316 µM)
MIC (isolate 1633115): 0.25 µg/mL (≈ 0.316 µM)
MIC (isolate 1633117): 1 µg/mL (≈ 1.26 µM)
MIC (isolate 1633121): 0.5 µg/mL (≈ 0.632 µM)
MIC (isolate 1633124): 1 µg/mL (≈ 1.26 µM)
MIC (isolate 1633269): 2 µg/mL (≈ 2.53 µM)
MIC (isolate 1633271): 1 µg/mL (≈ 1.26 µM)
MIC (isolate 1633272): 1 µg/mL (≈ 1.26 µM)
MIC (isolate 1728772): 0.25 µg/mL (≈ 0.316 µM)
MIC (isolate 1728773): 0.5 µg/mL (≈ 0.632 µM)
MIC (isolate 1728774): 0.25 µg/mL (≈ 0.316 µM)
MIC (isolate 1728884): 0.5 µg/mL (≈ 0.632 µM)
MIC (isolate 1729042): 2 µg/mL (≈ 2.53 µM)
MIC (isolate 1729043): 1 µg/mL (≈ 1.26 µM)
MIC (isolate 1729044): 1 µg/mL (≈ 1.26 µM)
MIC (isolate 1729049): 2 µg/mL (≈ 2.53 µM)
MIC (isolate 1729050): 2 µg/mL (≈ 2.53 µM)
MIC (isolate 1729052): 1 µg/mL (≈ 1.26 µM)
MIC (isolate 1729102): 4 µg/mL (≈ 5.06 µM)
MIC (isolate 1729123): 0.5 µg/mL (≈ 0.632 µM)
MIC (isolate 1729351): 0.5 µg/mL (≈ 0.632 µM)
